Patent publication US20110251158A1, “FULLERENE THERAPIES FOR INFLAMMATION AND INHIBITION OF BUILD-UP OF ARTERIAL PLAQUE” (Luna Innovations Incorporated, priority 2008, published 2011)
Where “and” joins values, the source holds several entries; their conditions need not be identical. Equal values may be shown once.

Experiments:
[1] = tested on: mice; experiment: In vivo administration of TGA for three weeks: behavior, gross pathology; conditions: i.v. daily; 200 ng/three weeks
Text: (§1) Taken together, the derivatives described herein are not cytotoxic to several cell lines tested and appear to have no acute in vivo cytotoxic effects.

[2] = tested on: intracellular calcium stores release; experiment: FcεRI-induced intracellular calcium (Fura-2) in MC; format: cell-based, human; conditions: 10 μg/mL overnight; anti-FcεRI 1 μg/mL
Experimental: MC were pre-treated with or without fullerene derivatives as above, washed with Tyrodes buffer supplemented with BSA, and incubated with Fura-2 AM (2 μM) for 30 minutes at 37° C. Cells were washed, stimulated with anti-FcεRI, and calcium flux measured in real time on a Perkin Elmer LS55 Spectrofluorometer. For ROS production, cells were exposed to fullerene derivatives as above. After washing, cells were re-suspended in X-Vivo medium containing 5 μM dichlorodihydrofluorescein (DCF) at 37° C. for 30 minutes, washed, and activation-induced changes in mean fluorescence was measured with excitation at 502 nm and emission at 523 nm for 15 minutes (19). The data is presented as fluorescence intensity of the 523 nm emission over time. All experiments were performed in triplicate and degranulation was measured in parallel.
Cells were incubated with or without fullerene derivative (10 μg/mL) overnight. The next day cells were challenged with anti-FcεRI (3B4; 1 μg/mL) and calcium stores release was determined by the 340/380 nm ratio (FIGS. 11A and 11B) and ROS measured by DCF detection at 523 nm (FIGS. 11C and 11D). FIGS. 11A and 11C contain cells incubated with the TGA fullerene derivative, and FIGS. 11B and 11D contain cells incubated with the Inos fullerene derivative (10 μg/mL). […]

[3] = Ames test; conditions: not shown
Text: as §1

[4] = tested on: Mast cells (MC); experiment: Anti-FcεRI-induced MC degranulation (β-hexosaminidase release); format: cell-based, human; conditions: for Mean percent degranulation, TGA + XL: TGA Treatment @ 10 μg/ml, Exp 1-5 and Average (±SD)
Experimental: (§2) MC are a component of the inflammatory response. As such, cultures of human Mast Cells can be used for screening the activity of different fullerene derivatives to evaluate their potential activity in animal models. In this example, human skin tissue was received from the Cooperative Human Tissue Network and MC purified and cultured as described in Kepley, C. L. Int. Arch. Allergy Immunol. 138, 29-39 (2005). The MC were cultured in media containing stem cell factor which is removed from the culture 24 hours prior to experimentation.
(§3) For activation, MC were suspended in fresh medium (without cytokines) and incubated for 16 hours with or without fullerene derivatives at 37° C. in a 6% CO2 incubator. […] The next morning, cells were washed and stimulated with anti-FcεRI Abs (3B4; 1 μg/ml) for 30 minutes (β-hexosaminidase) or overnight (GM-CSF) at 37° C. in a 6% CO2 incubator and mediator release measured as described in Zhao, W., Kepley, C. L., Morel, P. A., Okumoto, L. M., Fukuoka, Y., and Schwartz, L. B. J Immunol. 177, 694-701 (2006). All MC mediator release studies were performed in triplicate.
(§4) Cells were cultured with fixed concentrations of a fullerene derivative (10 μg/ml; FIGS. 8A and 9A) or different concentrations (FIGS. 8B and 9B) for 16 h, washed and stimulated for 30 min (FIGS. 8A and 8B) or 24 hours (FIGS. 9A and 9B) with optimal concentrations of αanti-FcεRI Abs (3B4; 1 μg/ml). Cells were centrifuged and β-hexosaminidase release and GMCSF levels determined by ELISA.

[5] = tested on: inflammatory arthritis; experiment: Murine arthritis model (arthritogenic serum): clinical indices and ankle swelling; format: in vivo, mice (C57/B6)
Experimental: To induce disease, C57/B6 (5 mice/cage/group) mice were injected intraperitoneally (IP) on Days 1 and 3 with 100 μl of arthritogenic serum. […] As a control 100 μl of PBS without serum was injected in the control group. Swelling in each ankle was measured along with the clinical indices as described (Lee, D M, Science 2002, Sep. 6; 297(5587):1689-92). Measurements were performed every second day by personnel blinded to the identity of the injections. After 14 days mice were sacrificed and ankle sections removed for histology and serum obtained for cytokine analysis. Error bars, SEM. In FIG. 5A, clinical index was given as the sum of observed inflammation (per paw): 0=no evidence of inflammation; 1=subtle inflammation (metatarsal phalanges joints, individual phalanx, or localized edema); 2=easily identified swelling but localized to either dorsal or ventral surface of paw; and 3=swelling on all aspects of paw. Maximum score=12. In FIG. 5B, the sum of the measurement in ankle swelling at each day was given. The * indicates significant differences observed on that day in fullerene compared to non-fullerene-treated mice. Prior to injection, 5 was incorporated into liposomes with egg phosphatidylcholine (PC) at a ratio of 1:2. 7 was dissolved in PBS buffer at pH 7.4. […]

[6] = tested on: Mast cells (MC); experiment: Anti-FcεRI-induced GM-CSF cytokine production in MC; format: cell-based, human; conditions: maximum inhibition set to 100%
Experimental: as §2
as §3, with “L., Morel, P. A., Okumoto, L. M., Fukuoka, Y., and Schwartz, L. B. J Immunol. 177, 694-701 (2006). All MC mediator release studies were performed in triplicate.” left out
as §4

C70-tetraglycolic acid [TGA]
behavior [1]: no notable differences in behavior
gross pathological examination [1]: no abnormalities
FcεRI-induced intracellular calcium stores release [2]: inhibited
mutagenic potential [3]: No mutagenic potential
Mean percent degranulation, TGA + XL [4]: 52.7% and 39.1% and 50.1% and 53.4% and 40.1%
Mean percent degranulation, TGA + XL ([4]; mean): 47.1 (±6.9) percent
IC50 (degranulation) ([4]; maximum inhibition set to 100%): 10.9 (±3.5) μg/ml
Inflammation ([5]; 200 ng/100 μl IP, days 6 to 12, p<0.03): significantly inhibited
Inflammation ([5]; 2000 ng/100 μl IP, days 10 to 14, p<0.02): significantly inhibited
IC50 (GMCSF-cytokine production) [6]: 3.3 (±0.6) μg/ml
